Read-outs that look alike come from different tables or passages of the source.
Key:
[1] = target: T1, Recombinant human integrin αVβ6 receptor (Homo sapiens, UniProt P06756+P18564); assay: Competitive solid-phase binding assay: inhibition of biotinylated fibronectin binding to isolated αVβ6 integrin; details: for IC50 (αVβ6)/IC50 (αVβ3): selectivity ratio; for αVβ6 IC50: 50% inhibition of biotinylated fibronectin (1 μg/mL) binding to isolated αVβ6, mean ± SD of triplicate determinations
T1 construct: purchased R&D Systems
T1 sequence (P06756 31-889 limits assumed): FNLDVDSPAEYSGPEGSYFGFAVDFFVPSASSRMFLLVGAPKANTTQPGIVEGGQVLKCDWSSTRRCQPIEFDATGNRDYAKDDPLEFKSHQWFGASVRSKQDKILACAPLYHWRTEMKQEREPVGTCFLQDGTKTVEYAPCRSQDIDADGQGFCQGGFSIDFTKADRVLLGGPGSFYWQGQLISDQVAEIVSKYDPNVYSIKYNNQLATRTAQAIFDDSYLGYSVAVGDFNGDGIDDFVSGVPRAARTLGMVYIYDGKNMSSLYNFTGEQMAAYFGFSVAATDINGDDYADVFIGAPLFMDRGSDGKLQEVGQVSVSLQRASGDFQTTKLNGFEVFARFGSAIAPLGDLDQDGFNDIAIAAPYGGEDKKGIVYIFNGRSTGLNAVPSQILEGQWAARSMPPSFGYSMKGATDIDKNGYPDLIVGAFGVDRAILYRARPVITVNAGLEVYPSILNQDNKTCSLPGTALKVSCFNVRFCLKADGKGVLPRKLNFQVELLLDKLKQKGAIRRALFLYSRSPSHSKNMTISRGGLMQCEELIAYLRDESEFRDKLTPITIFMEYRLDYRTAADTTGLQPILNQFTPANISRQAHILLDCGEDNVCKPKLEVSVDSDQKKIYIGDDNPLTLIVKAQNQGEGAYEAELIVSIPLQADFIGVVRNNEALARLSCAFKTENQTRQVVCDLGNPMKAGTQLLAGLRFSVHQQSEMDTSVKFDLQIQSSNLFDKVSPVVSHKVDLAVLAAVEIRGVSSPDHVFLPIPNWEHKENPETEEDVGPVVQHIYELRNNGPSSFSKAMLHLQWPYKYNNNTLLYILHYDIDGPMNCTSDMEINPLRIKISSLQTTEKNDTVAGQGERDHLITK
T1 sequence (P06756 891-992 partner limits assumed): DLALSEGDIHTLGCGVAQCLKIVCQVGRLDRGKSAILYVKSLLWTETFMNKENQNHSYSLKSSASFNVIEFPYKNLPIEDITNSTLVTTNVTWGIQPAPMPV
T1 sequence (P18564 22-707 limits assumed): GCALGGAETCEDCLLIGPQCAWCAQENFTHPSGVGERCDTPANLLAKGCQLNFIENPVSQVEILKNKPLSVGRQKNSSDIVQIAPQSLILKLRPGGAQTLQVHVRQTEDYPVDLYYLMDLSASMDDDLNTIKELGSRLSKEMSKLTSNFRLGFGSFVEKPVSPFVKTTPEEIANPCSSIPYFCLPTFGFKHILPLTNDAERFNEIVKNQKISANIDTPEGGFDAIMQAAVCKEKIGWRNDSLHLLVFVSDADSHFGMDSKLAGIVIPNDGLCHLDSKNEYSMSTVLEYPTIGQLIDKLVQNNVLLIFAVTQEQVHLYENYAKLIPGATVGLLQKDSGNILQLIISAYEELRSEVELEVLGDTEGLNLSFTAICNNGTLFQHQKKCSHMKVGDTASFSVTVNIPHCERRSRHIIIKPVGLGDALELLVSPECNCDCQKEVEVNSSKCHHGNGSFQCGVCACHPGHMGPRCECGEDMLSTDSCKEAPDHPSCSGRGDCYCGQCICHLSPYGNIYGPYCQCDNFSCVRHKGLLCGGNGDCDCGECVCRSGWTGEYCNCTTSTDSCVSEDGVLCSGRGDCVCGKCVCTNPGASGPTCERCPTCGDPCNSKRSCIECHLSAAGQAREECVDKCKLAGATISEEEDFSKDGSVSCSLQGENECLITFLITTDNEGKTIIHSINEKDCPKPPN
Experimental: The assay was performed according to previously reported procedures with slight modifications.
Recombinant human integrin αVβ6 receptor (R&D Systems, Minneapolis, MN, USA) was diluted to 1.0 μg/mL in coating buffer containing 20 mM Tris-HCl (pH 7.4), 150 mM NaCl, 1 mM MnCl2, 2 mM CaCl2, and 1 mM MgCl2. An aliquot of diluted receptor (100 μL/well) was added to 96-well microtiter plates (Nunc MaxiSorp, Thermo Fisher Scientific, Roskilde, Denmark) and incubated overnight at 4 °C. The plates were incubated with blocking solution (coating buffer plus 1% bovine serum albumin) for additional 2 h at room temperature to block nonspecific binding. After washing twice with blocking solution, plates were incubated shaking in the dark for 3 h at room temperature, with various concentrations (10^−4–10^−11 M) of test compounds in the presence of 1 μg/mL biotinylated fibronectin (Molecular Innovations, Novi, MI, USA). Biotinylation was performed using an EZ-Link Sulfo-NHS-Biotinylation kit (Pierce, Rockford, IL, USA). After washing three times, the plates were incubated shaking for 1 h, at room temperature, with streptavidin-biotinylated peroxidase complex (Amersham Biosciences, Uppsala, Sweden). After washing 3 times with blocking solution, plates were incubated with 100 μL/well of Substrate Reagent Solution (R&D Systems) for 30 min shaking in the dark, before stopping the reaction with the addition of 50 μL/well 2N H2SO4. Absorbance at 415 nm was read in a SynergyTM HT Multi-Detection Microplate Reader (BioTek Instruments, Inc., Winooski, VT, USA). Each data point represents the average of triplicate wells; data analysis was carried out by nonlinear regression analysis with GraphPad Prism software (GraphPad Software, Inc., La Jolla, CA, USA). Each experiment was repeated in triplicate.

αVβ3 integrin [2] = target: T2, αVβ3 integrin (Homo sapiens, UniProt P05106+P06756); assay: Inhibition of biotinylated vitronectin binding to isolated αVβ3 integrin; details: 50% inhibition of biotinylated vitronectin binding to isolated αVβ3; new RAD peptidomimetic tested for this paper
T2 sequence (P06756 31-889 limits assumed): as the sequence (P06756 31-889 limits assumed) above
T2 sequence (P06756 891-1048 partner limits assumed): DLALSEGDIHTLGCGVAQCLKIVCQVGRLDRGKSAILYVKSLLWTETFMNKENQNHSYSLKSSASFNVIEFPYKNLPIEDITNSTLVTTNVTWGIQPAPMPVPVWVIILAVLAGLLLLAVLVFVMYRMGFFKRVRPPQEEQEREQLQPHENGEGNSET
T2 sequence (P05106 27-788): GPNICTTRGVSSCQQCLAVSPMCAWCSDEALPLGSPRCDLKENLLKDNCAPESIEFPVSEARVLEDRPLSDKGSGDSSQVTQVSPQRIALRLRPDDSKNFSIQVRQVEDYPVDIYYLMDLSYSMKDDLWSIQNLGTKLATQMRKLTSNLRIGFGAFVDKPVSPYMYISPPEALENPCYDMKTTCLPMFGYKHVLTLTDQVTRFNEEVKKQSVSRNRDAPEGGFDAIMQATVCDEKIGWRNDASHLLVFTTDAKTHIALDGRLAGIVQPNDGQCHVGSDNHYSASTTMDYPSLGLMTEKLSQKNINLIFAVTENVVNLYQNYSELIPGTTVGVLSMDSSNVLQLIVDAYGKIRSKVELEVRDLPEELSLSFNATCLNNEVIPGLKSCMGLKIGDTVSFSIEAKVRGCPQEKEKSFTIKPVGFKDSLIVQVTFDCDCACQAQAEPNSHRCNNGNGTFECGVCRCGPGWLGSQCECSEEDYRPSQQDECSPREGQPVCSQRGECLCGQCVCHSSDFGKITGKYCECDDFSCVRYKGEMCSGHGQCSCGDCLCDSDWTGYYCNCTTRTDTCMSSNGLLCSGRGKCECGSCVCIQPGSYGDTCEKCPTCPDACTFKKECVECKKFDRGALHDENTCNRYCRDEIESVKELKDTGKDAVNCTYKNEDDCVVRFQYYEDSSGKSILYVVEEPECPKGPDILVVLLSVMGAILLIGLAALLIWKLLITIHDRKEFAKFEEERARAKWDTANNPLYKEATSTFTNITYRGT

αVβ3 integrin [3] = target: T2, αVβ3 integrin; set-up: method as in PMID 22517378; details: 50% inhibition of biotinylated vitronectin binding to αVβ3; cited from earlier work
human glioblastoma cells = system: human glioblastoma cells; set-up: method as in PMID 25761230; details: cited from earlier work
human endothelial cells = system: human endothelial cells; set-up: method as in PMID 25053992; details: cited from earlier work
[4] = system: FAK/Akt integrin-activated transduction signaling pathway; set-up: method as in PMID 25761230; details: human glioblastoma cells; cited from earlier work
different cancer cells = system: different cancer cells; set-up: method as in PMID 25053992; details: cited from earlier work
integrin αVβ6 = system: integrin αVβ6; set-up: method as in PMID 28074920; details: immobilized LAP and soluble integrin; cited from earlier work

Structure (SMILES) | IC50 [1] | IC50 (αVβ6)/IC50 (αVβ3) [1] | other results
N=C(N)NCCC[C@@H]1NC(=O)C[C@@H]2C(=O)N[C@@H](CNC(=O)[C@H](CC(=O)O)NC(=O)CNC1=O)C(=O)N2Cc1ccccc1 [Compound 6] | 76.6 ± 4.2 nM | 37 | 
CC1NC(=O)[C@H](CCCNC(=N)N)NC(=O)C[C@H]2NC(=O)[C@H](CNC(=O)[C@H](CC(=O)O)NC1=O)N(Cc1ccccc1)C2=O (some centres unmarked) [Compound 8, Cyclo[DKP-3-RAD]] |  | 3 | αVβ3 IC50 (αVβ3 integrin [2]): micromolar; αVβ6 IC50 [1]: micromolar
N=C(N)NCCC[C@@H]1NC(=O)C[C@H]2NC(=O)[C@H](CNC(=O)[C@H](CC(=O)O)NC(=O)CNC1=O)N(Cc1ccccc1)C2=O [Compound 3] | 95.6 ± 24.6 nM | 21 | effects on integrin-mediated cell infiltration processes (human glioblastoma cells): inhibitory effects; inhibition of angiogenesis induced by pro-angiogenic growth factors (human endothelial cells): significantly inhibit; effects on the FAK/Akt integrin-activated transduction signaling pathway [4]: inhibitory effects; inhibition of cell adhesion (different cancer cells): significantly inhibit
N=C(N)NCCC[C@@H]1NC(=O)C[C@@H]2NC(=O)[C@@H](CNC(=O)[C@H](CC(=O)O)NC(=O)CNC1=O)N(Cc1ccccc1)C2=O [Compound 2] | 345 ± 1 nM | 108 | 
CC(C)[C@H]1C(=O)N[C@@H](CCCNC(=N)N)C(=O)NCC(=O)N[C@@H](CC(=O)O)C(=O)N[C@H](Cc2ccccc2)C(=O)N1C [Compound 1a, cyclo[RGDf(N-Me)V]] |  |  | αVβ6 IC50 (integrin αVβ6): micromolar

Second part, led by results:

IC50 [1] | IC50 (αVβ6)/IC50 (αVβ3) [1] | Structure (SMILES) | other results
2.3 ± 0.8 nM |  | N=C(N)NCCC[C@@H]1NC(=O)C[C@@H]2C(=O)N(Cc3ccccc3)[C@@H](CNC(=O)[C@H](CC(=O)O)NC(=O)CNC1=O)C(=O)N2Cc1ccccc1 [Compound 7] | αVβ3 IC50 (αVβ3 integrin [3]): subnanomolar; αVβ6 IC50 [1]: low nanomolar
173 ± 52.5 nM |  | N=C(N)NCCC[C@@H]1NC(=O)C[C@H]2C(=O)N(Cc3ccccc3)[C@H](CNC(=O)[C@H](CC(=O)O)NC(=O)CNC1=O)C(=O)N2Cc1ccccc1 [Compound 5] | IC50 (αVβ3 integrin [3]): 12.6 ± 5 nM
95.3 ± 4.9 nM |  | N=C(N)NCCC[C@@H]1NC(=O)C[C@H]2C(=O)N[C@H](CNC(=O)[C@H](CC(=O)O)NC(=O)CNC1=O)C(=O)N2Cc1ccccc1 [Compound 4] | 

Source: publication PMC5664067, “Investigating the Interaction of Cyclic RGD Peptidomimetics with αVβ6 Integrin by Biochemical and Molecular Docking Studies” (Cancers, 2017)
